The results in this text go back to patent US6881728B1, “14-β, 17-α-hydroxymethylandrostane derivatives as androgens” (Akzo Nobel N.V., priority 1999, dated 2005).

Molecules are shown by their SMILES.

Tested on in one series: not given
Test: not given
In turn, `C[C@]12CC[C@H]3[C@@H](CCC4=CC(=O)CC[C@@H]43)[C@H]1CC[C@H]2CO` [Example 1, (14β,17α)-17-(Hydroxymethyl)estr-4-en-3-one] came in with a melting point of 115 to 118 °C.

For the compound `CC(=O)OC[C@@H]1CC[C@@H]2[C@@H]3CCC4=CC(=O)CC[C@]4(C)[C@H]3CC[C@]12C` [Example 22a, (14β,17α)-17-[(Acetyloxy)methyl]androst-4-en-3-one], the melting point is 141 to 142 °C.

A further series concerns the target T1, human androgen receptor (Homo sapiens, UniProt P10275).
T1 construct: host or cells: MCF-7 cytosol (endogenous) or CHO cells transfected with hAR
T1 sequence (P10275 1-920): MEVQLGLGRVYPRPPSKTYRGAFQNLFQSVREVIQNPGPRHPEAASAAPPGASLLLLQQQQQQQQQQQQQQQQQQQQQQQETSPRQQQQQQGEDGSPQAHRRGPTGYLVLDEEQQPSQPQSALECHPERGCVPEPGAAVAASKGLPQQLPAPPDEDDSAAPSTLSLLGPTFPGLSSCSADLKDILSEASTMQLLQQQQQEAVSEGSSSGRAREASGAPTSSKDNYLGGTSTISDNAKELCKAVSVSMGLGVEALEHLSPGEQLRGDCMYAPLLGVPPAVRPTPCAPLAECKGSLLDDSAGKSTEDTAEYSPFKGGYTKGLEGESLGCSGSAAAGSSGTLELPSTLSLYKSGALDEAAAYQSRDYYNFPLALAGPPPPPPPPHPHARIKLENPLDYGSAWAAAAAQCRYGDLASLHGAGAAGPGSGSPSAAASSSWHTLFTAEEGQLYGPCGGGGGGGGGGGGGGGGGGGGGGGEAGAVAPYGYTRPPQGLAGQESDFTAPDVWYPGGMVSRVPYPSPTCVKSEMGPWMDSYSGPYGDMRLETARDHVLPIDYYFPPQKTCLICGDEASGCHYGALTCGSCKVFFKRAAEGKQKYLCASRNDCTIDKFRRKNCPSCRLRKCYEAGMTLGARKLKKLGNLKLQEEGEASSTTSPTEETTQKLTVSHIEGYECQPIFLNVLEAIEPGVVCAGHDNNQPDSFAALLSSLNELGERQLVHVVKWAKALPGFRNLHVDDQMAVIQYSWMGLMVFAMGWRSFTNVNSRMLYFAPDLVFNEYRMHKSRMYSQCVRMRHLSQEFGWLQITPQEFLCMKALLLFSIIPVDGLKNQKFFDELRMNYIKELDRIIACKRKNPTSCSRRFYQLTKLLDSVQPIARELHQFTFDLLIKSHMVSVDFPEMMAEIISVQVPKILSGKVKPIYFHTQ
Nature of the series: androgenic activity rating (procedures described above; which one underlies the rating is not stated). Also on record: key: +: androgenic activity found; ++: high androgenic activity; +++: excellent androgenic activity. As to the method:
Androgenic activity can be measured in various ways. Thus, the potency of androgens can be determined in vitro using the cytoplasmic androgen receptor from human breast tumor cells (MCF-7 cell line); see Bergink, E. W. et al, Comparison of the receptor binding properties of nandrolone and testosterone under in vitro and in vivo conditions, J. Steroid Biochem. 22, 831-836 (1985). It is also possible to use Chinese hamster ovary (CHO) cells transfected with the human androgen receptor (incubation time 16 h, temperature 4° C.) and compared with the affinity of 5α-dihydrotestosterone [according to the procedure described by Bergink, E. W. et al, J. Steroid Biochem. 12, 1563-1570 (1983)]. The transactivative androgen activity of the compounds of the invention can be measured, e.g. in Chinese hamster ovary cells (CHO) transfected with the human androgen receptor (hAR), in combination with a mouse mammary tumor virus (MMTV), and luciferase […] (incubation time 16 h, temperature 37° C.) and compared with the activity of 5α-dihydrotestosterone [according to the procedure described by Schoonen, W. G. E. J. et al, Analyt. Biochem. 261, 222-224 (1998)]. For the in vivo potency determination of androgens the classical Hershberger test can be used. In this test the androgenic (increase in prostate weight) and anabolic activities [increase of the musculus levator ani (MLA)] of a compound are tested in immature castrated rats after daily administration for 7 days; see Hershberger, L. G. et al, Myotrophic activity of 19-Nortestosterone and other steroids determined by modified levator ani muscle method, Proceedings of the society for experimental biology and medicine 83, 175-180 (1953). Additionally, the effect of an androgenic compound on LH suppression can be tested in mature castrated rats according to Kumar, N. et al, The biological activity of 7alpha-methyl-19-nortestosterone is not amplified in male reproductive tract as is that of testosterone, Endocrinology 130, 3677-3683 (1992).
A plurality of compounds according to the invention were tested for androgenic activity (the procedures for which have been described above) and rated in the Table below according to the following scheme: • + androgenic activity found; • ++ high androgenic activity; • +++ excellent androgenic activity; • nd no data available
For `C[C@]12CC[C@H]3[C@@H](CCC4=CC(=O)CC[C@@H]43)[C@H]1CC[C@H]2CO` [Example 1, (14β,17α)-17-(Hydroxymethyl)estr-4-en-3-one], the “Rating (androgenic activity)” value is listed as “+++”.

Turning to `CC(=O)OC[C@@H]1CC[C@@H]2[C@@H]3CCC4=CC(=O)CC[C@]4(C)[C@H]3CC[C@]12C` [Example 22a, (14β,17α)-17-[(Acetyloxy)methyl]androst-4-en-3-one], the “Rating (androgenic activity)” value is recorded as “+”.

Turning to `C[C@]12CC[C@H]3[C@@H](CCC4=CC(=O)CC[C@@]43C)[C@H]1CC[C@H]2CO` [Example 22b, (14β,17α)-17-(Hydroxymethyl)androst-4-en-3-one], the “Rating (androgenic activity)” value is recorded as “+”.

For `C[C@@H]1C[C@@H](CO)[C@@]2(C)CC[C@H]3[C@@H](CCC4=CC(=O)CC[C@@H]43)[C@@H]12` [Example 23, (14β,15β,17α)-17-(Hydroxymethyl)-15-methylestr-4-en-3-one], the “Rating (androgenic activity)” value was “+”.

As for `CC(O)C1CCC2C3CCC4=CC(=O)CCC4C3CCC12C` [Example 24a, (14β,17α,20S)-20-Hydroxy-19-norpregn-4-en-3-one], the “Rating (androgenic activity)” value is “++”.

With `CC(O)C1CCC2C3CCC4=CC(=O)CCC4C3CCC12C` [Example 24b, (14β,17α,20R)-20-Hydroxy-19-norpregn-4-en-3-one], the “Rating (androgenic activity)” value is listed as “+”.

As to `CC[C@H](O)[C@@H]1CC[C@@H]2[C@@H]3CCC4=CC(=O)CC[C@@H]4[C@H]3CC[C@@]21C` [Example 25a], the “Rating (androgenic activity)” value is given as “++”.

For `CCC(O)[C@@H]1CC[C@@H]2[C@@H]3CCC4=CC(=O)CC[C@@H]4[C@H]3CC[C@@]21C` (stereo partly drawn) [Example 25b, [14β,17α(R)]-17-(1-Hydroxypropyl)estr-4-en-3-one], the “Rating (androgenic activity)” value is reported as “+”.

In the case of `CCC[C@H](O)[C@@H]1CC[C@@H]2[C@@H]3CCC4=CC(=O)CC[C@@H]4[C@H]3CC[C@@]21C` [Example 25c, (14β,17α,20S)-20-Hydroxy-19,21-dinorchol-4-en-3-one], the “Rating (androgenic activity)” value is “+”.

For the compound `CC(O)C1CCC2C3CCC4=CC(=O)CCC4=C3CCC12C` [Example 27a, (14β,17α,20S)-20-Hydroxy-19-norpregna-4,9-dien-3-one], the “Rating (androgenic activity)” value is “++”.

Consider `CC(O)C1CCC2C3CCC4=CC(=O)CCC4=C3CCC12C` [Example 27b, (14β,17α,20R)-20-Hydroxy-19-norpregna-4,9-dien-3-one], for which the “Rating (androgenic activity)” value was “+”.

With `CCC1CC2(C)C(C(C)O)CCC2C2CCC3=C(CCC(=O)C3)C12` [Example 28a, (11β,14β,17α,20S)-11-Ethyl-20-hydroxy-19-norpregn-5(10)-en-3-one], the “Rating (androgenic activity)” value is listed as “+”.

Take `CCC1CC2(C)C(C(C)O)CCC2C2CCC3=CC(=O)CCC3C12` [Example 29a, (11β,14β,17α,20S)-11-Ethyl-20-hydroxy-19-norpregn-4-en-3-one]: the “Rating (androgenic activity)” value was “+”.

As to `C=CC1CC2(C)C(C(C)O)CCC2C2CCC3=CC(=O)CCC3=C12` [Example 30, (11β,14β,17α,20S)-11-Ethenyl-20-hydroxy-19-norpregna-4,9-dien-3-one], the “Rating (androgenic activity)” value is given as “+”.

Turning to `CCC12CCC3C4CCC(=O)C=C4CCC3C1CCC2C(C)O` [Example 32a, (14β,17α,20S)-13-Ethyl-20-hydroxy-18,19-dinorpregn-4-en-3-one], the “Rating (androgenic activity)” value is given as “+”.

As to `CC(=O)OC[C@@H]1CC[C@@H]2[C@H]3[C@H](CC[C@]12C)[C@H]1CCC(=O)C=C1C[C@H]3C` [Example 33a, (7α,14β,17α)-17-[(Acetyloxy)methyl]-7-methylestr-4-en-3-one], the “Rating (androgenic activity)” value is “+”.

Take `CCCCCCCCCCC(=O)OC[C@@H]1CC[C@@H]2[C@H]3[C@H](CC[C@]12C)[C@H]1CCC(=O)C=C1C[C@H]3C` [Example 33c, (7α,14β,17α)-7-Methyl-17-[[(1-oxoundecyl)oxy]methyl]estr-4-en-3-one]: the “Rating (androgenic activity)” value was “+”.

As for `C[C@@H]1CC2=C[C@@H](O)CC[C@@H]2[C@H]2CC[C@]3(C)[C@H](CO)CC[C@@H]3[C@@H]21` [Example 34, (3β,7α,14β,17α)-17-(Hydroxymethyl)-7-methylestr-4-en-3-ol], the “Rating (androgenic activity)” value was “++”.

Consider `C[C@@H]1CC2=C/C(=N/O)CC[C@@H]2[C@H]2CC[C@]3(C)[C@H](CO)CC[C@@H]3[C@@H]21` [Example 36a, (3E,7α,14β,17α)-3-(Hydroxyimino)-7-methylestr-4-ene-17-methanol], for which the “Rating (androgenic activity)” value was “+”.

On to `C[C@@H]1CC2=CCCC[C@@H]2[C@H]2CC[C@]3(C)[C@H](CO)CC[C@@H]3[C@@H]21` [Example 37, (7α,14β,17α)-7-Methylestr4-ene-17-methanol], for which the “Rating (androgenic activity)” value is on record as “+”.

A word on the melting point: it is the temperature, or range, at which the solid turns liquid.
